From patent publication US20260078114A1, “COMPOUND USED AS INHIBITOR OF CDK4 KINASE AND USE THEREOF” (TYK MEDICINES, INC., priority 2022, published 2026) come the findings set out here.

Series [1] relates to Human breast cancer cell MCF-7. As to the kind of experiment: Cellular antiproliferative assay (MTT, 5 days), MCF-7. Format: cell-based. Particulars: Homo sapiens, MCF7, 120 h, MCF-7 cells, 5 days incubation. The gist of the method: (§1)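 MTT read-out at 570 nm after 3 h MTT incubation and isopropanol/HCl/NP-40 solubilisation; cells seeded at 50,000 cells/ml in DMEM with 10% FBS, 37 °C, 5% CO2, compound exposure 5 days. Viability calculated relative to 0.1% DMSO control and blank medium.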

The test system of series [2] is ovarian cancer cell A2780. As to the kind of experiment: Cellular antiproliferative assay (MTT, 5 days), A2780. Format: cell-based, human. Particulars: Homo sapiens, 120 h, A2780 cells, 5 days incubation. The procedure, abridged: as §1
Series [3] concerns human mantle cell lymphoma cell JEKO-1. As to the kind of experiment: Cellular antiproliferative assay (MTT, 5 days), JEKO-1. Format: cell-based. Particulars: Homo sapiens, 120 h, JEKO-1 cells, 5 days incubation. The procedure, abridged:
as §1

Series [4] in a line: Preclinical rat pharmacokinetic test. Format: in vivo. Particulars: male SD rats, gavage (p.o.), 10 mg/kg, plasma; for AUC(0-t) / Cmax / Tmax: Sprague-Dawley (SD), rat, po. The method, then: Healthy adult SD rats, male, 6-8 weeks old, weighing 200-300 g. EDTA-Na2 anticoagulant. Analytical balance, animal weight scale, magnetic stirrer, freezing centrifuge, single-channel manual pipette. About 10 mg of the sample to be tested was precisely weighed, the converted 5% DMSO was added to dissolve, and then 10 percent solutol HS-15 and 85% saline were added, ultrasonic treatment was performed, vortex mixed, to obtain the solution having a concentration of 1 mg/mL; freshly prepared before use. Animals were kept in rat cages and fasted (not less than 10 h) the day before the test, but not water fasted; on the day of the test, they were weighed and labeled at the tail. Blank blood was collected before drug administration. Blood was collected from the tail vein. • Route of administration: gavage (p.o.). • Dose: 10 mg/kg • Administration volume: 10 mL/kg • Operation procedure: Hold the rat with the left hand with anti-biting gloves, made it stand upright, extent the 16-gauge gavage needle from the throat in the mouth, and then injected the drug into the stomach when there was no obvious resistance. Before and 0.5 […] and 24 h after the administration of the drug, 0.1 ml of whole blood from the test animal was collected in EDTA-Na2 anticoagulant tubes, which was mixed upside down for 3-4 times and then centrifuged at 10,000 g for 5 min at 4° C. to isolate the plasma, which was stored at -80° C. for testing. Blood was collected from the tail vein. […] Pipetted 25 μL of rat blank plasma in a centrifuge tube respectively, added 25 μL of prepared standard series solution (prepared in methanol), then added 200 μL of internal standard solution (prepared in methanol), vortexed and mixed for 2 min, centrifuged at 4° C., 10,000 g for 10 min. Unknown plasma samples treatment: 25 μL of rat plasma containing drug was aspirated, 25 μL of methanol and 200 μL of internal standard solution were added sequentially, vortexed and mixed for 2 min, and then centrifuged at 4° C. and 10,000 g for 10 min. The supernatant was extracted for LC/MS/MS detection. Shimadzu liquid phase and Triple Quad TM 6500+AB mass spectrometry were utilized to establish a quantitative assay for the compounds to be tested. The pro-drug concentration in plasma was determined. The blood drug concentration-time curves were plotted, and the main pharmacokinetic parameters were calculated using the non-compartment model in winnonlin Phoenix software, and the detailed data were shown in Table 3.

A word on the IC50: it is the concentration at which inhibition is half-maximal. With `CC(C)n1c(N2CCOCC2)nc2c(F)cc(-c3nc(N[C@@H]4CCOC[C@H]4O)ncc3Cl)cc21` [TB-12, (3S,4R)-4-((5-chloro-4-(4-fluoro-1-isopropyl-2-morpholino-1H-benzo[d]imidazol-6-yl)pyrimidin-2-yl)amino)tetrahydro-2H-pyran-3-ol], the IC50 in series [1], in series [2] and in series [3] was no more than 500 nM throughout. Besides, the “HL—” value in series [4] is 3.14 h.

In the case of `C[C@H]1CCN(C)c2nc3c(F)cc(-c4nc(N[C@@H]5CCOC[C@H]5O)ncc4Cl)cc3n21` [TB-92, (3S,4R)-4-((5-chloro-4-((S)-9-fluoro-1,4-dimethyl-1,2,3,4-tetrahydrobenzo[4,5]imidazo[1,2-a]pyrimidin-7-yl)pyrimidin-2-yl)amino)tetrahydro-2H-pyran-3-ol], the IC50 in series [1], in series [2] and in series [3] was no more than 500 nM throughout. The “HL—” value in series [4] was determined as 1.21 h.

A word on the AUC(0-t): it is the area under the concentration-time curve up to a stated or last time point. The low end stands for less exposure, the high end for more exposure. The term Cmax denotes the maximum level reached in the sampled fluid or tissue. The Tmax is the time at which the peak concentration occurs. On to `CC(C)c1c(C(C)(C)O)nc2ccc(-c3nc(N[C@@H]4CCOC[C@H]4O)ncc3Cl)cn12` [TA-25, (3S,4R)-4-((5-chloro-4-(2-(2-hydroxypropan-2-yl)-3-isopropylimidazo[1,2-a]pyridin-6-yl)pyrimidin-2-yl)amino)tetrahydro-2H-pyran-3-ol], for which, in series [4], the AUC(0-t) worked out at 4470 ng·h/mL, the Cmax turned out to be 611 ng/mL, the Tmax is 3.33 h and the “HL—” value stood at 1.69 h.

Consider `CC1CC(=O)N(C)c2nc3c(F)cc(-c4nc(N[C@@H]5CCOC[C@H]5O)ncc4Cl)cc3n21` (stereo partly drawn) [TA-53, 7-(5-chloro-2-(((3S,4R)-3-hydroxytetrahydro-2H-pyran-4-yl)amino)pyrimidin-4-yl)-9-fluoro-1,4-dimethyl-3,4-dihydrobenzo[4,5]imidazo[1,2-a]pyrimidin-2(1H)-one], for which, in series [4], the AUC(0-t) is 3530 ng·h/mL, the Cmax came to 920 ng/mL, the Tmax came to 1 h and the “HL—” value is given as 1.77 h.

For the compound `CC(C)n1c(N2CCOC2=O)nc2c(F)cc(-c3nc(N[C@@H]4CCOC[C@H]4O)ncc3Cl)cc21` [TB-24], in series [4], the “HL—” value is 3.14 h.

Turning to `CCS(=O)(=O)N1CCC(Nc2ncc(Cl)c(-c3cc(F)c4nc(N5CCOC5=O)n(C(C)C)c4c3)n2)CC1` [TB-31], the IC50 in series [1], in series [2] and in series [3] was no more than 500 nM each time. Moreover, in series [4], the “HL—” value was found to be 1.34 h.
